Measured values as given in ChEMBL document CHEMBL1201862, “PubChem BioAssay data set” (2004).
Active and inactive are the calls of the source.

Columns and labels:
[1] = target: T1, Bcl-2-related protein A1 (Mus musculus, UniProt Q07440); format: functional;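 note: confirmatory dose–response counterscreen on Bfl-1, used to check hits from a UBC13 polyubiquitin inhibitor campaign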
T1 sequence (Q07440 whole entry): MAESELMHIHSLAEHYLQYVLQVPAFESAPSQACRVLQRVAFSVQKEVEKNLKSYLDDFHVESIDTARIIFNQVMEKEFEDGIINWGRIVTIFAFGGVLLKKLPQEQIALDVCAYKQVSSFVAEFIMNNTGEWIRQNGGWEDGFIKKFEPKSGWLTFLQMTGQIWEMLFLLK

[2] = target: T2, Ubiquitin-conjugating enzyme E2 N (Homo sapiens, UniProt P61088); format: functional
T2 sequence (P61088 whole entry): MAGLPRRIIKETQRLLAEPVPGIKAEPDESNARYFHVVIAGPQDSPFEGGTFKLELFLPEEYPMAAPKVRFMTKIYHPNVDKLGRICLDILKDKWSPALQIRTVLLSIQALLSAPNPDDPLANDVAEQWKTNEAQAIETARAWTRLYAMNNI

[3] = target: T2, Ubiquitin-conjugating enzyme E2 N; format: functional; remark: listed apart in the source
[4] = Luminescence Cell-Based Dose Confirmation HTS to Identify Activators of 5'UTR Stem-Loop Driven Alpha-Synuclein mRNA Translation in H4 Neuroglioblastoma Cells. [Related pubchem assays: 1829 (Project Summary), 1814 (Primary HTS)]; format: functional
[5] = Luminescence Cell-Based Dose Response HTS to Identify Activators of Luciferase Translation or Activity in H4 […] Cells. [Related pubchem assays: 1829 (Project Summary), 1814 (Primary HTS)]; format: functional
[6] = system: H4; test: Luminescence Cell-Based Dose Response HTS to Identify Activators of 5'UTR Stem-Loop Driven Prion Protein mRNA Translation in H4 Neuroglioblastoma Cells. [Related pubchem assays: 1829 (Project Summary), 1814 (Primary HTS)]; format: functional; conditions: Homo sapiens
[7] = target: T3, Intestinal-type alkaline phosphatase (Homo sapiens, UniProt P09923); test: human intestinal alkaline phosphatase activators, dose response, biochemical, luminescence, uHTS hits (AID 463120); format: functional
T3 sequence (P09923 whole entry): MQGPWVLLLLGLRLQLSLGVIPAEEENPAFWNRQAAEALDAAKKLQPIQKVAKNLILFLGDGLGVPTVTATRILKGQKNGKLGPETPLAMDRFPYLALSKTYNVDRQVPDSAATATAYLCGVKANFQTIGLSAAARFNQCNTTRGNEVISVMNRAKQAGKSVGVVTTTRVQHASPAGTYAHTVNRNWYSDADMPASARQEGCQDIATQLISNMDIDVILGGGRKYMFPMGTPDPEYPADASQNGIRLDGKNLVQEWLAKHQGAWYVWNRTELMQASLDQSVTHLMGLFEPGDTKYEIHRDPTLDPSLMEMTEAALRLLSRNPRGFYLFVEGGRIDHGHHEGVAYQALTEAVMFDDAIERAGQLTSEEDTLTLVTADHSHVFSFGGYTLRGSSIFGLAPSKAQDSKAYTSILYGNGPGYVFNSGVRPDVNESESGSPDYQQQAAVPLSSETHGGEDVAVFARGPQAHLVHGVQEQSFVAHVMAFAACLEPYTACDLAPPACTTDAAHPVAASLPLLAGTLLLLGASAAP

[8] = target: Intestinal-type alkaline phosphatase (Mus musculus, UniProt P24822); test: PubChem AID 488785; format: functional
Chain of Intestinal-type alkaline phosphatase (Mus musculus, UniProt P24822) (P24822 whole entry): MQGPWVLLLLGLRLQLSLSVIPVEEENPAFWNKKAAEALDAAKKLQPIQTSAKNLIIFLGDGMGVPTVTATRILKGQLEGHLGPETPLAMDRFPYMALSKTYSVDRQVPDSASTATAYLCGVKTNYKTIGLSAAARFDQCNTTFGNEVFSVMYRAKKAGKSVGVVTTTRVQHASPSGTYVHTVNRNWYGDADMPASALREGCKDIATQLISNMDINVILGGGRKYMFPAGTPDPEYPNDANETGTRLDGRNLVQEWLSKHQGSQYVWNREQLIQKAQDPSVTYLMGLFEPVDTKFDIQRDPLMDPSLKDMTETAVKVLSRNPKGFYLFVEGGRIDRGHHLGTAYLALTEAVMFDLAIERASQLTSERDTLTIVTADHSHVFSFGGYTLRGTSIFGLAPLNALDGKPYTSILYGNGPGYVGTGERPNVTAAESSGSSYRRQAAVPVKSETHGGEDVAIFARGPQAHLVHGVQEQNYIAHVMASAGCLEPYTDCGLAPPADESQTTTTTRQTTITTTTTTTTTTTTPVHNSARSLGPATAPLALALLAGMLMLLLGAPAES

[9] = target: T4, Alkaline phosphatase, tissue-nonspecific isozyme (Homo sapiens, UniProt P05186); test: TNAP enzyme inhibition by screening hits, dose response, selectivity assay for mouse IAP inhibitor project, biochemical, human TNAP, uHTS hits (AID 488906); format: functional
T4 sequence (P05186 whole entry): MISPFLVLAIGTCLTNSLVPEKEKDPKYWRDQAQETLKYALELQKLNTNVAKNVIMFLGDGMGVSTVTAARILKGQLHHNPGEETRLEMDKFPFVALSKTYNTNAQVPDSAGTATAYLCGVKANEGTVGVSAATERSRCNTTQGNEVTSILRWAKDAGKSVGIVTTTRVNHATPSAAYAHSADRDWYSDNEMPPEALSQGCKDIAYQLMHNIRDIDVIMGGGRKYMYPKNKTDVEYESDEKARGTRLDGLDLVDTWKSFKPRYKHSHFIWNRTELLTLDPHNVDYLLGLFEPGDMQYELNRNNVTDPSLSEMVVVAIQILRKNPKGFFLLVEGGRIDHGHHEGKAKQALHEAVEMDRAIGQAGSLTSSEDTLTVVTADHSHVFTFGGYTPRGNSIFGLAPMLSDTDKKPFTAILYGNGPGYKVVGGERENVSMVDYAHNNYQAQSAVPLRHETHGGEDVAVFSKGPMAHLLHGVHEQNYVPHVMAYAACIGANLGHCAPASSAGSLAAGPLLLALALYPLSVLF

[10] = target: T3, Intestinal-type alkaline phosphatase; test: inhibition of human intestinal alkaline phosphatase – biochemical, dose response (AID 488876); format: functional
[11] = target: T5, Heat shock factor protein 1 (Mus musculus, UniProt P38532); test: inhibition of MG132-induced HSE-luciferase signal, confirmation, cell-based, NIH3T3, luminescence, dose retest (AID 2382); format: functional;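 note: NIH3T3 fibroblasts with HSF1-driven luciferase reporter stressed by proteasome inhibitor MG132; luminescence from HSF1-driven luciferase expression after 8 hours of MG132 stress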
T5 sequence (P38532 whole entry): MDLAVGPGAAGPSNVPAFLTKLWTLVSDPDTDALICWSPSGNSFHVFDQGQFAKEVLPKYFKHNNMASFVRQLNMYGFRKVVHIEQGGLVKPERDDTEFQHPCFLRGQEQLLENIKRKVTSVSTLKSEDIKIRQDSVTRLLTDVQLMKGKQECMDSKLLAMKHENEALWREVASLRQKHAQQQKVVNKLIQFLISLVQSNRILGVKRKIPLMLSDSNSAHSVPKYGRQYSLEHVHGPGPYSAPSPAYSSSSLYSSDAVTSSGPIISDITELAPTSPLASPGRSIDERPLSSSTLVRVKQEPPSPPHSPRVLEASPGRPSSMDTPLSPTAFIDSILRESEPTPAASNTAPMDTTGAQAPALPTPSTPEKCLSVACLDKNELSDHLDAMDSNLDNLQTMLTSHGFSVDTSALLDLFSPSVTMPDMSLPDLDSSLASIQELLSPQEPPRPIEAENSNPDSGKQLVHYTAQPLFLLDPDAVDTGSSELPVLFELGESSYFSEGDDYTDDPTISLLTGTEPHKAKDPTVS

[12] = system: Escherichia coli; test: microbe, parasite or virus in culture
[13] = system: Escherichia coli; test: microbe, parasite or virus in culture; remark: listed apart in the source

O=C(NNC(=O)c1nn(-c2ccc(F)cc2)ccc1=O)c1ccc(Cl)cc1
IC50 [1]: > 20 µM (inactive) | IC50 [2]: 18.9 µM (active) | IC50 [3]: 19.8 µM (active)

C#CCOCCOCCOCCNc1nc(N2CCN(C(=O)[C@H](CCCN=C(N)N)n3cc(C(N)[C@@H](C)CC)nn3)CC2)nc(N2CCN(C(=O)[C@H](CCCCN)n3cc([C@@H](N)[C@H](C)CC)nn3)CC2)n1 (some centres not stated)
IC50 [1]: > 20 µM (inactive) | IC50 [2]: 15.2 µM (active) | IC50 [3]: 18.4 µM (active)

Cc1ccc(S(=O)(=O)Nc2nc3ccccc3nc2NCc2ccco2)cc1
EC50 [4]: 8.02 µM (active) | EC50 [5]: 10.8 µM (active) | EC50 [6]: 7.32 µM (active) | EC50 [7]: > 100 µM (inactive)

COc1cc(C(=O)NN2C(=O)/C(=C3\C(=O)Nc4ccccc43)SC2=S)ccc1O
IC50 [8]: 6.07 µM (active) | IC50 [9]: 22.2 µM (active) | IC50 [10]: > 100 µM (inactive)

O=C(c1ccc(Cl)cc1)C1CCCN(Cc2ccc3c(c2)OCCO3)C1 (configuration not stated)
EC50 [11]: > 195 µM (not active) | AC50 [12]: 190 µM (active)

c1ccc(Nc2cc(-c3ccccc3)nc3ncnn23)cc1
AC50 [13]: 18.4 µM (active) | AC50 [12]: 72 µM (active)
